# Results from patent US11731964B2, “Benzamide antibacterial agents” (Purdue Research Foundation, priority 2018, dated 2023).
# Like-named read-outs stand apart in the source and are kept apart here.
# Key:
# MRSA USA400 (NRS123) = format: cell-based, Staphylococcus aureus
# Text: Resistance was classified as a greater than four-fold increase in the initial MIC, as reported elsewhere^30 (Farrell D J, Robbins M, Rhys-Williams W, Love W G. Investigation of the potential for mutational resistance to XF-73, retapamulin, mupirocin, fusidic acid, daptomycin, and vancomycin in methicillin-resistant Staphylococcus aureus isolates during a 55-passage study. Antimicrob Agents Chemother. 2011; 55(3):1177-81).
# [1] = tested on: human colorectal (Caco-2) cells; test: Toxicity profile, MTS viability assay; format: cell-based; conditions: 24 hours, tested 2 to 256 μg/mL
# Method: (§1) Compound F6 was assayed (at concentrations ranging from 2 μg/mL to 256 μg/mL) against murine macrophage (J774) and human colorectal (Caco-2) epithelial cell lines to determine the potential toxic effect to mammalian cells in vitro. Caco-2 cells were cultured in Dulbecco's Modified Eagle Medium (DMEM) supplemented with 20% fetal bovine serum (FBS), non-essential amino acids (1×), and penicillin-streptomycin at 37° C. with CO2 (5%). J774 cells were cultured in DMEM supplemented with 10% FBS. Upon reaching 85-90% confluency, cells were transferred to all wells of a 96-well tissue-culture treated plate. The cells were incubated in serum-free medium with the compounds (in triplicate) at 37° C. with CO2 (5%) for 24 hours. Cells exposed to equivalent concentrations of DMSO served as the negative control. The assay reagent MTS 3-(4,5-dimethylthiazol-2-yl)-5-(3-carboxymethoxyphenyl)-2-(4-sulfophenyl)-2H-tetrazolium) (Promega, Madison, Wis., USA) was subsequently added and the plate was incubated for four hours. Absorbance readings (at OD490) were taken using a kinetic microplate reader (Molecular Devices, Sunnyvale, Calif., USA). The quantity of viable cells after treatment with each compound was expressed as a percentage of the viability of DMSO-treated control cells (average of triplicate wells±standard deviation). The toxicity data were analyzed via a two-way ANOVA, with post hoc Sidak's multiple comparisons test (P<0.05), utilizing GraphPad Prism 6.0 (GraphPad Software, La Jolla, Calif., USA).
# [2] = tested on: murine macrophage (J774) cells; test: Toxicity profile, MTS viability assay; format: cell-based
# Method: as §1
# MRSA NRS385 (USA500) = test: MIC and MBC; format: cell-based; conditions: Staphylococcus aureus, MRSA NRS385 (USA500)
# Method: (§2) Bacteria were cultured in cation-adjusted Mueller Hinton Broth (for strains in Tables 1 and 4) or Brain Heart Infusion broth (for Enterococcus faecium) or Tryptic Soy Broth (all other bacteria) in a 96-well plate at 37° C. for at least 20 hours. The MIC was classified as the lowest concentration where no visual growth of bacteria was observed. The minimum bactericidal concentration (MBC) was tested by spotting 4 μL from wells with no growth onto Tryptic Soy Agar (TSA) plates. Plates were incubated at 37° C. for at least 18 hours before recording the MBC.
# MRSA NRS387 (USA800) = test: MIC and MBC; format: cell-based; conditions: Staphylococcus aureus, MRSA NRS387 (USA800)
# Method: as §2
# MRSA USA300 = test: Time-kill analysis; format: cell-based, Staphylococcus aureus
# Method: The time-kill analysis was performed as previously described^29. […] Aliquots (100 μL) were collected from each treatment after 0, 2, 4, 8, 12, and 24 hours of incubation at 37° C. and subsequently serially diluted in phosphate-buffered saline (PBS). Bacteria were then transferred to TSA plates and incubated at 37° C. for 18-20 hours before viable CFU/mL was determined.
# [3] = tested on: L. monocytogenes ATCC 19115; test: MIC, broth microdilution; format: cell-based; conditions: Listeria monocytogenes, ATCC19115; L. monocytogenes ATCC 19115; read-out: MIC
# Procedure, shortened: (§3)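 Visual read-out: the minimum inhibitory concentration is the lowest concentration lacking bacterial growth following incubation of ≥20 h at 37° C. Media varied by organism (CA-MHB, TSB, or BHI for E. faecium). Bactericidal concentration came from subculturing clear wells onto Tryptic Soy Agar for ≥18 h.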
# [4] = tested on: VRE (E. faecalis) ATCC 51575; test: MIC, broth microdilution; format: cell-based; conditions: VRE (E. faecalis) ATCC 51575; read-out: MIC
# Procedure, shortened: as §3
# MRSA ATCC 33592 = test: MIC, broth microdilution; format: cell-based; conditions: Staphylococcus aureus; MRSA ATCC 33592; read-out: MIC
# Procedure, shortened: as §3
# E. faecalis ATCC 29212 = test: MIC, broth microdilution; format: cell-based; conditions: Enterococcus faecalis, ATCC29212; E. faecalis ATCC 29212; read-out: MIC
# Procedure, shortened: as §3
# S. aureus ATCC 25923 = test: MIC, broth microdilution; format: cell-based; conditions: Staphylococcus aureus, ATCC25923; S. aureus ATCC 25923; read-out: MIC
# Procedure, shortened: as §3
# S. aureus = test: Screening of compounds for growth inhibition of S. aureus at 16 μg/mL (OD600); format: cell-based; conditions: compound at 16 μg/mL, 24 hours, compared to DMSO control
# Method: Library compounds and analogs of F6 were dissolved in DMSO at 10 mg/mL. S. aureus was cultured in Mueller Hinton Broth to early exponential phase at which point culture aliquots were incubated with compounds at 16 μg/mL or DMSO in duplicates. The culture was continued at 37° C. for 24 hours. Aliquots (100 μL) of the cultures were dispensed into clear 96 well microtiter plates and OD600 was recorded. Percent normalized OD600 was obtained by using the equation [formula] wherein for a given compound, X is the OD600 of culture with the compound, Xo is that of media only and XT is the OD600 of the DMSO control.
# MRSA NRS119 = test: MIC and MBC; format: cell-based, Staphylococcus aureus; conditions: Staphylococcus aureus, MRSA NRS119
# Method: as §2
# Escherichia coli BW25113 = test: MIC against Gram-negative pathogens; format: cell-based; conditions: Escherichia coli BW25113 (wild-type); read-out: MIC
# Method: as §2
# [5] = tested on: Klebsiella pneumoniae BAA-1706; test: MIC against Gram-negative pathogens; format: cell-based
# Method: as §2
# [6] = tested on: Acinetobacter baumannii ATCC 19606; test: MIC against Gram-negative pathogens; format: cell-based
# Method: as §2
# [7] = tested on: Pseudomonas aeruginosa ATCC 15442; test: MIC against Gram-negative pathogens; format: cell-based
# Method: as §2
smiles,measurement,setting,value
CC1CC(C)CN(S(=O)(=O)c2ccc(C(=O)Nc3nnc(-c4cccs4)o3)cc2)C1 (stereo not drawn) [Compound F6],increase in MIC after the tenth passage,MRSA USA400 (NRS123); MRSA USA400,one-fold increase
same,increase in MIC by the 14th passage from the original MIC,MRSA USA400 (NRS123); MRSA USA400,no additional increase in MIC
same,change in MIC over nine passages,"MRSA USA400 (NRS123); MRSA USA400, passages 1-9",remained unchanged
same,concentration up to which non-toxic,[1],up to 128 μg/mL
same,concentration up to which non-toxic,"[2]; J774 cells, 24 hours, tested 2 to 256 μg/mL",up to 128 μg/mL
same,"non-toxic concentration, fold higher than the MIC of F6 against MRSA","[2]; mouse and human, 24 h",63 fold
same,MBC,MRSA NRS385 (USA500); read-out: MBC,> 128 µg/mL
same,MIC,MRSA NRS385 (USA500); read-out: MIC,2 µg/mL
same,MBC,MRSA NRS387 (USA800); read-out: MBC,> 128 µg/mL
same,MIC,MRSA NRS387 (USA800); read-out: MIC,2 µg/mL
same,reduction in MRSA USA300 (time-kill),"MRSA USA300; 3×MIC, after a 24-hour incubation period",2.42 log10
same,in vitro effect against MRSA USA300,MRSA USA300; time-kill analysis and MBC,bacteriostatic
same,MIC,[3],4 µg/mL
same,MIC,[4],4 µg/mL
same,MIC,MRSA ATCC 33592,2 µg/mL
same,MIC,E. faecalis ATCC 29212,4 µg/mL
same,MIC,S. aureus ATCC 25923,2 µg/mL
same,inhibition of growth of S. aureus,S. aureus,significantly inhibited the growth
same,MBC,MRSA NRS119; read-out: MBC,> 128 µg/mL
same,MIC,MRSA NRS119; read-out: MIC,2 µg/mL
same,MIC,Escherichia coli BW25113,> 128 µg/mL
same,MIC,[5],not active
same,MIC,"[5]; BAA1706, read-out: MIC",> 128 µg/mL
same,MIC,[6],not active
same,MIC,"[6]; ATCC19606, read-out: MIC",128 µg/mL
same,MIC,[7],not active
same,MIC,"[7]; ATCC15442, read-out: MIC",> 128 µg/mL
